Values quoted from earlier work as cited in patent US10449180B2, “Macrolide particulates, methods for preparation, and medical devices associated therewith” (Surmodics, Inc., priority 2013, dated 2019).

solubility in N,N-dimethylformamide (N,N-dimethylformamide): soluble
solubility in acetone (acetone): soluble
solubility in ether (ether): soluble
solubility in water (water): insoluble
SMILES: CO[C@H]1C[C@@H]2CC[C@@H](C)[C@@](O)(O2)C(=O)C(=O)N2CCCC[C@H]2C(=O)O[C@H]([C@H](C)C[C@@H]2CC[C@@H](O)[C@H](OC)C2)CC(=O)[C@H](C)/C=C(\C)[C@@H](O)[C@@H](OC)C(=O)[C@H](C)C[C@H](C)/C=C/C=C/C=C/1C [Rapamycin, rapamycin]
